Experimental data published in US20250320213A1, “Nitrogen-Containing Heterocyclic Compounds” (Pfizer Inc., priority 2024, published 2025).

How the values were obtained:
[1] = target: T1, STAT6 (Homo sapiens, UniProt P42226); assay: STAT6 Reporter Luciferase Assay (IL-13 stimulated HaCaT keratinocyte NanoLuc reporter cells); assay type: cell-based; details: IL-13 stimulated HaCaT STAT6 NanoLuc reporter cells; read-out: Reporter EC50
T1 construct: stably transfected HaCaT keratinocyte cell line, which expresses NanoLuc luciferase reporter gene under the transcriptional control of the STAT6 responsive promoter; endogenous in cells; host or cells: HaCaT keratinocyte reporter cell line (stably transfected with a NanoLuc reporter)
T1 sequence (P42226 1-847): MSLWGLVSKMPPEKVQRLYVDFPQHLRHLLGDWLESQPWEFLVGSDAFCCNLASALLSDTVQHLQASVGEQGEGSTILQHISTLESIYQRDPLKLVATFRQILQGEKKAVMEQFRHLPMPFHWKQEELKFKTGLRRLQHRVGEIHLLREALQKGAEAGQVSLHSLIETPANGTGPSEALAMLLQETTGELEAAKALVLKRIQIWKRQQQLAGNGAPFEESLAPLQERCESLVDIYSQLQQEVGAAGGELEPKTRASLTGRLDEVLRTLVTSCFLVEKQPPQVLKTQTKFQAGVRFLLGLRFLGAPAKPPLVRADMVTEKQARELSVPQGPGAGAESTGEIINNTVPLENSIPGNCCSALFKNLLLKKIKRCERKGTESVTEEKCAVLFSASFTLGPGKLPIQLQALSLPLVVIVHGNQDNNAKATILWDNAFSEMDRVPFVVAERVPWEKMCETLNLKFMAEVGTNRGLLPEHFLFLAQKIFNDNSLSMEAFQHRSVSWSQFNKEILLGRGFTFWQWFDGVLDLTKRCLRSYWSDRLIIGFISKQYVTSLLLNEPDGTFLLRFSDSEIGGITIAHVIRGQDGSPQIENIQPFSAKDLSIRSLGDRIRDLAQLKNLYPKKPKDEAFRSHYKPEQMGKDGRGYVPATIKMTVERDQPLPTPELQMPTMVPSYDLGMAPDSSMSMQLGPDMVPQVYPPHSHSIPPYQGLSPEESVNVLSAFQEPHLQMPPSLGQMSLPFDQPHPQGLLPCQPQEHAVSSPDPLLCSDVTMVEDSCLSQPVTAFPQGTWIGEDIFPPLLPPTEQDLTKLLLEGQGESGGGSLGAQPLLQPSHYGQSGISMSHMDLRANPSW
How it was run: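 Compounds were tested as 11-point, 4-fold series in duplicate, applied for 2 h at 37 °C in low-serum (2% FBS) DMEM. The cells were a stable HaCaT line with NanoLuc under a STAT6-responsive IL-13Ra2 promoter. After 4 h with 0.12 nM IL-13, Nano-Glo luminescence was measured.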

[2] = system: CCL17 secretion in peripheral human whole blood; assay: Human Whole Blood (HWB) CCL17 TR-FRET Assay (IL-13 stimulated CCL17 secretion); assay type: cell-based; details: human whole blood, IL-13 stimulated
How it was run: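 Heparinized peripheral human whole blood was preincubated with compound (11-point, 3-fold series, duplicate) for 2 h at 37 °C, then stimulated with IL-13 at 10 ng/mL final for 48 h at 37 °C. Secreted CCL17 in the serum was quantified by TR-FRET sandwich immunoassay (665/615 nm ratio, 16 h RT); IC50 derived.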

| Compound | EC50 [1] | IC50 ([2]; 48 hours) | IC50 ([2]; Homo sapiens, 48 h) |
| --- | --- | --- | --- |
| CCc1nc(C(=O)NCc2ccc(NC(=O)N(C)C)cc2)c2n1C(C)CN(c1ccc(C(=O)N(C)C)cc1)C2 (single isomer, unassigned) [Example 429, rel-(R or S)-7-(4-(dimethylcarbamoyl)phenyl)-N-(4-(3,3-dimethylureido)benzyl)-3-ethyl-5-methyl-5,6,7,8-tetrahydroimidazo[1,5-a]pyrazine-1-carboxamide] | 0.001 µM | 0.006 µM | – |
| C[C@@H]1c2c(C(=O)NCc3ccc(NC(=O)N(C)C)cc3)nn(C)c2CCN1c1ccc(C(=O)N(C)C)cn1 (single isomer, unassigned) [Example 445] | 0.002 µM | – | 0.021 µM |
| CCn1nc(C(=O)NCc2ccc(NC(=O)N(C)C)cc2)c2c1[C@H](C)[C@@H](C)N(c1ncc(C(=O)N(C)C)cn1)C2 (single isomer, unassigned) [Example 446] | 0.015 µM | – | 0.08 µM |
| CC(C)n1nc(C(=O)NCc2ccc(NC(=O)N(C)C)cc2)c2c1[C@H](C)[C@@H](C)N(c1ncc(C(=O)N(C)C)cn1)C2 (single isomer, unassigned) [Example 448] | 0.013 µM | – | > 30 µM |
| CC(C)n1nc(C(=O)NCc2ccc(NC(=O)N(C)C)cc2)c2c1[C@@H](C)[C@H](C)N(c1ncc(C(=O)N(C)C)cn1)C2 (single isomer, unassigned) [Example 449] | 0.0002 µM | – | 0.004 µM |
| CC(C)n1nc(C(=O)NCc2ccc(NC(=O)N(C)C)cc2)c2c1C(C(F)(F)F)CN(c1ncc(C(=O)N(C)C)cn1)C2 (single isomer, unassigned) [Example 461, rel-(R or S)-5-(5-(dimethylcarbamoyl)pyrimidin-2-yl)-N-(4-(3,3-dimethylureido)benzyl)-1-isopropyl-7-(trifluoromethyl)-4,5,6,7-tetrahydro-1H-pyrazolo[4,3-c]pyridine-3-carboxamide] | 0.0002 µM | < 0.001 µM | – |
| CC(C)n1nc(C(=O)NCc2ccc(NC(=O)N(C)C)cc2)c2c1C(C(F)(F)F)CN(c1ncc(C(=O)N(C)C)cn1)C2 (single isomer, unassigned) [Example 462, rel-(R or S)-5-(5-(dimethylcarbamoyl)pyrimidin-2-yl)-N-(4-(3,3-dimethylureido)benzyl)-1-isopropyl-7-(trifluoromethyl)-4,5,6,7-tetrahydro-1H-pyrazolo[4,3-c]pyridine-3-carboxamide] | 0.0387 µM | 0.376 µM | – |
| CCn1nc(C(=O)NCc2ccc(C(=O)NC)cc2)c2c1C(C(F)(F)F)CN(c1ccc(C(=O)N(C)C)cn1)C2 (single isomer, unassigned) [Example 468, rel-(R or S)-5-(5-(dimethylcarbamoyl)pyridin-2-yl)-1-ethyl-N-(4-(methylcarbamoyl)benzyl)-7-(trifluoromethyl)-4,5,6,7-tetrahydro-1H-pyrazolo[4,3-c]pyridine-3-carboxamide] | 0.0022 µM | 0.012 µM | – |
| CC(C)n1nc(C(=O)NCc2ccc(NC(=O)N(C)C)cc2)c2c1C(C(F)F)CN(c1ccc(C(=O)N(C)C)cn1)C2 (single isomer, unassigned) [Example 493, rel-(R or S)-7-(difluoromethyl)-5-(5-(dimethylcarbamoyl)pyridin-2-yl)-N-(4-(3,3-dimethylureido)benzyl)-1-isopropyl-4,5,6,7-tetrahydro-1H-pyrazolo[4,3-c]pyridine-3-carboxamide] | 0.028 µM | 0.203 µM | – |
| CC(C)n1nc(C(=O)NCc2ccc(NC(=O)N(C)C)cc2)c2c1CCN(c1ccc(C(=O)N(C)C)cn1)[C@@H]2C (single isomer, unassigned) [Example 506] | 0.002 µM | – | 0.014 µM |
| CC(C)n1nc(C(=O)NCc2ccc(NC(=O)N(C)C)cc2)c2c1CCN(c1ncc(C(=O)N(C)C)cn1)[C@@H]2C (single isomer, unassigned) [Example 508] | 0.007 µM | – | 0.02 µM |
| CC(C)n1nc(C(=O)NCc2ccc(NC(=O)N(C)C)cc2)c2c1CCN(c1ncc(C(=O)N(C)C)cn1)[C@H]2C (single isomer, unassigned) [Example 509] | 3.32 µM | – | 8.17 µM |
| CCn1nc(C(=O)NCc2ccc(NC(=O)N(C)C)cc2)c2c1CCN(c1ncc(C(=O)N(C)C)cn1)[C@H]2C (single isomer, unassigned) [Example 510] | 1.52 µM | – | 8.83 µM |
| CCn1nc(C(=O)NCc2ccc(NC(=O)N(C)C)cc2)c2c1CCN(c1ncc(C(=O)N(C)C)cn1)[C@@H]2C (single isomer, unassigned) [Example 511] | 0.006 µM | – | 0.029 µM |

Second part, the compound after the results:

| EC50 [1] | IC50 ([2]; 48 hours) | IC50 ([2]; Homo sapiens, 48 h) | Compound |
| --- | --- | --- | --- |
| 0.158 µM | – | 1.38 µM | C[C@H]1c2c(C(=O)NCc3ccc(NC(=O)N(C)C)cc3)nn(C)c2CCN1c1ccc(C(=O)N(C)C)cn1 (single isomer, unassigned) [Example 444] |
| 0.0004 µM | – | > 0.413 µM | CCn1nc(C(=O)NCc2ccc(NC(=O)N(C)C)cc2)c2c1[C@@H](C)[C@H](C)N(c1ncc(C(=O)N(C)C)cn1)C2 (single isomer, unassigned) [Example 447] |
| 0.0002 µM | 0.002 µM | – | CCn1nc(C(=O)NCc2ccc(NC(=O)N(C)C)cc2)c2c1C(C(F)(F)F)CN(c1ncc(C(=O)N(C)C)cn1)C2 (single isomer, unassigned) [Example 464, rel-(R or S)-5-(5-(dimethylcarbamoyl)pyrimidin-2-yl)-N-(4-(3,3-dimethylureido)benzyl)-1-ethyl-7-(trifluoromethyl)-4,5,6,7-tetrahydro-1H-pyrazolo[4,3-c]pyridine-3-carboxamide] |
| 0.0518 µM | 0.682 µM | – | CCn1nc(C(=O)NCc2ccc(NC(=O)N(C)C)cc2)c2c1C(C(F)(F)F)CN(c1ncc(C(=O)N(C)C)cn1)C2 (single isomer, unassigned) [Example 465, rel-(R or S)-5-(5-(dimethylcarbamoyl)pyrimidin-2-yl)-N-(4-(3,3-dimethylureido)benzyl)-1-ethyl-7-(trifluoromethyl)-4,5,6,7-tetrahydro-1H-pyrazolo[4,3-c]pyridine-3-carboxamide] |
| 0.315 µM | 2.5 µM | – | CCn1nc(C(=O)NCc2ccc(C(=O)NC)cc2)c2c1C(C(F)(F)F)CN(c1ccc(C(=O)N(C)C)cn1)C2 (single isomer, unassigned) [Example 467, rel-(R or S)-5-(5-(dimethylcarbamoyl)pyridin-2-yl)-1-ethyl-N-(4-(methylcarbamoyl)benzyl)-7-(trifluoromethyl)-4,5,6,7-tetrahydro-1H-pyrazolo[4,3-c]pyridine-3-carboxamide] |
| 0.04 µM | 0.085 µM | – | CC(C)n1nc(C(=O)NCc2ccc(NC(=O)N(C)C)cc2)c2c1C(O)CN(c1ccc(C(=O)N(C)C)cn1)C2 (single isomer, unassigned) [Example 474, rel-(R or S)-5-(5-(dimethylcarbamoyl)pyridin-2-yl)-N-(4-(3,3-dimethylureido)benzyl)-7-hydroxy-1-isopropyl-4,5,6,7-tetrahydro-1H-pyrazolo[4,3-c]pyridine-3-carboxamide] |
| 0.072 µM | 0.215 µM | – | CC(C)n1nc(C(=O)NCc2ccc(NC(=O)N(C)C)cc2)c2c1C(O)CN(c1ccc(C(=O)N(C)C)cn1)C2 (single isomer, unassigned) [Example 475, rel-(R or S)-5-(5-(dimethylcarbamoyl)pyridin-2-yl)-N-(4-(3,3-dimethylureido)benzyl)-7-hydroxy-1-isopropyl-4,5,6,7-tetrahydro-1H-pyrazolo[4,3-c]pyridine-3-carboxamide] |
| 0.0005 µM | 0.004 µM | – | CC(C)n1nc(C(=O)NCc2ccc(NC(=O)N(C)C)cc2)c2c1C(C(F)F)CN(c1ccc(C(=O)N(C)C)cn1)C2 (single isomer, unassigned) [Example 494, rel-(R or S)-7-(difluoromethyl)-5-(5-(dimethylcarbamoyl)pyridin-2-yl)-N-(4-(3,3-dimethylureido)benzyl)-1-isopropyl-4,5,6,7-tetrahydro-1H-pyrazolo[4,3-c]pyridine-3-carboxamide] |
| 0.136 µM | – | 1.65 µM | CC(C)n1nc(C(=O)NCc2ccc(NC(=O)N(C)C)cc2)c2c1CCN(c1ccc(C(=O)N(C)C)cn1)[C@H]2C (single isomer, unassigned) [Example 507] |
